Source: patent US20190298664A1, “METHOD AND KIT FOR MYOCARDIAL REPERFUSION, AND METHOD FOR ATTENUATING OR REDUCING MYOCARDIAL REPERFUSION INJURY” (Academia Sinica, priority 2018, published 2019)

Legend:
[1] = system: overall PTP activity in H9C2 cells; assay: Overall PTP activity (orthovanadate-sensitive fraction) by pNPP assay in H9C2 cells; type: cell-based; settings: 5, 10 and 20 μmol/L for 20 min
Procedure: For heart tissue: At the end of the treatment, the left ventricle of mouse heart is gently homogenized in ice-cold RIPA buffer with Ser/Thr phosphatase inhibitors inside. Then the samples are centrifuged at 16,100×g for 10 min at 4° C. to remove the debris. Tissue extract (1 mg) is incubated with pNPP (2 mM) in reaction buffer at 37° C. for 60 min on a shaker. At the end of incubation, the reaction is terminated by addition of the same volume of 0.1 N NaOH. The released p-nitrophenolate ion is measured by spectrophotometry reading the absorbance at 405 nm. For H9C2 cell: At the end of the treatment, the cells are collected in ice-cold RIPA buffer with Ser/Thr phosphatase inhibitors inside. Then the samples are centrifuged at 16,100×g for 10 min at 4° C. to remove the debris. The cell lysate is incubated with pNPP […] in reaction buffer at 37° C. for 90 min on a shaker. The reaction is terminated by adding the same volume of 0.1 N NaOH. The released p-nitrophenolate ion is measured by spectrophotometry reading the absorbance at 405 nm. H9C2 cell lines were purchased from ATCC® organization, U.S. Cell cultures were maintained in Dulbecco modified Eagle medium (DMEM) supplemented with 10% fetal bovine serum (FBS) and 1% Penicillin/Streptomycin at 37° C. incubator in a 5% CO2 humid atmosphere.

[2] = system: phosphorylation of Paxillin and p130Cas in H9C2 cells; assay: Immunoblotting of H9c2 total lysates for pTyr of Paxillin and p130Cas; type: cell-based; settings: H9C2 cells treated with indicated concentrations
Procedure: Hearts from mice received different treatment were gently homogenized in ice-cold RIPA buffer [250 mM Tris-HCl pH 7.4, 750 mM NaCl, detergent mix (5% NP-40, 2.5% Na-deoxycholate and 0.5% SDS), and 1× protease inhibitor cocktail (EDTA free)] containing phosphatase inhibitors (2 mM Na3VO4, 10 mM NaF, and 10 mM Na2P2O7). The homogenates were centrifuged at 16,100×g at 4° C. for 10 minutes to remove the debris. Protein concentrations were determined by Bradford protein assay. Equal amounts of protein extract from those mice were separated by SDS-PAGE on an 8% or 10% polyacrylamide gel and then transferred to PVDF membrane. Membranes were incubated with indicated primary antibody at 4° C. overnight followed by incubated with secondary antibodies for 1 hour at room temperature. The protein abundance was detected by the signal intensity of each specific band. H9C2 cell lines were purchased from ATCC® organization, U.S. Cell cultures were maintained in Dulbecco modified Eagle medium (DMEM) supplemented with 10% fetal bovine serum (FBS) and 1% Penicillin/Streptomycin at 37° C. incubator in a 5% CO2 humid atmosphere.

myocardial PTP activity = assay: Overall myocardial PTP activity by pNPP assay in heart extracts of I/R mice; type: in vivo, mouse; settings: 2 mg/kg IP ten min before reperfusion; four hours post-I/R
Procedure: We anesthetized the mouse with 5% isoflurane mixed with room air until loss of sensation of pain and then maintained the mouse in anesthesia status with 2% isoflurane mixed with room air through the whole procedure. The mouse's body temperature was maintained at 37° C. by a heating pad. After the mouse was intubated, we provided artificial ventilation to the mouse with a small animal ventilator. Then the chest cavity was opened at the second intercostal space and homemade chest retractors were utilized to widen the incision. We pulled the pericardium apart carefully and exposed the left anterior descending artery (LAD). A 7-0 silk was put underneath the LAD at the position of the tip of the left auricle, a 6 mm length of PE-10 tube was put on the surface of the LAD, and then a double knot was made to occlude the blood flow of LAD. The success of ligation was confirmed by […] anterior wall of the LV. For the reperfusion group, the LAD knot would be untied for the purpose of reperfusion after 1 hour of ischemia. For the sham operation group, all procedures were the same except for the knot that occluded the LAD flow. […] The released p-nitrophenolate ion is measured by spectrophotometry reading the absorbance at 405 nm. […]

CC(=O)OC[C@H]1O[C@@H]([S-])[C@H](OC(C)=O)[C@@H](OC(C)=O)[C@@H]1OC(C)=O.CCP(CC)CC.[Au+] [Auranofin, auranofin]
Overall PTP activity in H9C2 cells [1]: decreased
Phosphorylation on the specific Tyr residue in Paxillin or p130Cas [2]: increase
Overall myocardial PTP activity (myocardial PTP activity): significantly suppressed
